From publication PMC4893628, “Chalcone-based Selective Inhibitors of a C4 Plant Key Enzyme as Novel Potential Herbicides” (Scientific Reports, 2016)
Like-named read-outs stand apart in the source and are kept apart here.

What was measured:
[1] = tested on: Bacillus subtilis 168; assay: Bacterial growth in microscale cultivation, B. subtilis; format: cell-based; conditions: relative to control
Method in brief: (§1)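 In a BioLector microscale system shaken at 1200 rpm, growth was tracked by backscatter at 620 nm, and final signal, growth rate (h⁻¹) and lag-phase length were scored against DMSO-only controls. Starting OD600 was 0.5, or 0.25 for B. subtilis. Inhibitors came from DMSO stocks, with trans-chalcone capped at 400 μM and 2'-hydroxychalcone at 100 μM.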

[2] = tested on: Amaranthus retroflexus; assay: In planta growth experiment, A. retroflexus; format: in vivo; conditions: for Influence on plants: shoots sprayed, 3 mM
Method in brief: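 Single top spray of 3 mM compound (2.4% DMSO, 0.1% Tween) onto two-leaf-stage plants in a climate chamber (22/20 °C, 16 h/8 h); controls got vehicle only.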

[3] = tested on: Pseudomonas putida KT2440; assay: Bacterial growth in microscale cultivation, P. putida; format: cell-based; conditions: relative to control; for activity at 0.3 µM / activity at 3 µM / activity at 30 µM / activity at 0.1 µM / activity at 1 µM / activity at 10 µM: Pseudomonas putida
Method in brief: as §1

With `O=C(/C=C/c1ccc(O)c(O)c1)c1c(O)cc(O)cc1O` [Compound 11, 2′,4′,6′,3,4-Pentahydroxy-chalcone] the activity at 0.3 µM ([1]; Bacillus subtilis, 168, complex medium, 0.3 µM, read-out: Final Backscatter) was 97.4%, the activity at 0.3 µM ([1]; Bacillus subtilis, 168, complex medium, 0.3 µM, read-out: Growth rate) was 106% and the activity at 3 µM ([1]; Bacillus subtilis, 168, complex medium, 3 µM, read-out: Final Backscatter) was 96.5%. For the same molecule, the activity at 3 µM ([1]; Bacillus subtilis, 168, complex medium, 3 µM, read-out: Growth rate) was 106%, the activity at 30 µM ([1]; Bacillus subtilis, 168, complex medium, 30 µM, read-out: Final Backscatter) was 97.1% and the activity at 30 µM ([1]; Bacillus subtilis, 168, complex medium, 30 µM, read-out: Growth rate) was 97.8%. For the same molecule, the activity at 0.3 µM ([1]; Bacillus subtilis, 168, minimal medium, 0.3 µM, read-out: Final Backscatter) was 97.2%, the activity at 0.3 µM ([1]; Bacillus subtilis, 168, minimal medium, 0.3 µM, read-out: Growth rate) was 114% and the activity at 3 µM ([1]; Bacillus subtilis, 168, minimal medium, 3 µM, read-out: Final Backscatter) was 98.7%. The activity at 3 µM ([1]; Bacillus subtilis, 168, minimal medium, 3 µM, read-out: Growth rate) was 107%, the activity at 30 µM ([1]; Bacillus subtilis, 168, minimal medium, 30 µM, read-out: Final Backscatter) was 103% and the activity at 30 µM ([1]; Bacillus subtilis, 168, minimal medium, 30 µM, read-out: Growth rate) was 103%. For the same molecule, the “Lag Phase” value ([1]; complex medium, 0.3 µM) was 100,0%, the “Lag Phase” value ([1]; complex medium, 3 µM) was 100,0% and the “Lag Phase” value ([1]; complex medium, 30 µM) was 100,0%. For the same molecule, the “Lag Phase” value ([1]; minimal medium, 0.3 µM) was 100,0%, the “Lag Phase” value ([1]; minimal medium, 3 µM) was 101,1% and the “Lag Phase” value ([1]; minimal medium, 30 µM) was 100,0%. The Influence on plants [2] was “No”, the activity at 0.3 µM ([3]; KT2440, complex medium, 0.3 µM, read-out: Final Backscatter) was 92.6% and the activity at 0.3 µM ([3]; KT2440, complex medium, 0.3 µM, read-out: Growth rate) was 108%. The activity at 3 µM ([3]; KT2440, complex medium, 3 µM, read-out: Final Backscatter) was 96.8%, the activity at 3 µM ([3]; KT2440, complex medium, 3 µM, read-out: Growth rate) was 106% and the activity at 30 µM ([3]; KT2440, complex medium, 30 µM, read-out: Final Backscatter) was 92.5%. The activity at 30 µM ([3]; KT2440, complex medium, 30 µM, read-out: Growth rate) was 105%, the activity at 0.3 µM ([3]; KT2440, minimal medium, 0.3 µM, read-out: Final Backscatter) was 93.9% and the activity at 0.3 µM ([3]; KT2440, minimal medium, 0.3 µM, read-out: Growth rate) was 96.8%. For the same molecule, the activity at 3 µM ([3]; KT2440, minimal medium, 3 µM, read-out: Final Backscatter) was 94.9%, the activity at 3 µM ([3]; KT2440, minimal medium, 3 µM, read-out: Growth rate) was 98.7% and the activity at 30 µM ([3]; KT2440, minimal medium, 30 µM, read-out: Final Backscatter) was 99%. For the same molecule, the activity at 30 µM ([3]; KT2440, minimal medium, 30 µM, read-out: Growth rate) was 95.2%, the “Lag Phase” value ([3]; complex medium, 0.3 µM) was 95,5% and the “Lag Phase” value ([3]; complex medium, 3 µM) was 97,5%. The “Lag Phase” value ([3]; complex medium, 30 µM) was 97,0%, the “Lag Phase” value ([3]; minimal medium, 0.3 µM) was 99,3% and the “Lag Phase” value ([3]; minimal medium, 3 µM) was 98,9%. The “Lag Phase” value ([3]; minimal medium, 30 µM) was 98,9%.
With `O=C(/C=C/c1ccc(O)c(O)c1)c1ccc(O)c(O)c1O` [Compound 12, 2′,3′,4′,3,4-Pentahydroxy-chalcone] the activity at 0.1 µM ([1]; Bacillus subtilis, 168, complex medium, 0.1 µM, read-out: Final Backscatter) was 93.5%, the activity at 0.1 µM ([1]; Bacillus subtilis, 168, complex medium, 0.1 µM, read-out: Growth rate) was 96.7% and the activity at 1 µM ([1]; Bacillus subtilis, 168, complex medium, 1 µM, read-out: Final Backscatter) was 93.9%. It also gave an activity at 1 µM ([1]; Bacillus subtilis, 168, complex medium, 1 µM, read-out: Growth rate) of 104%, an activity at 10 µM ([1]; Bacillus subtilis, 168, complex medium, 10 µM, read-out: Final Backscatter) of 90.6% and an activity at 10 µM ([1]; Bacillus subtilis, 168, complex medium, 10 µM, read-out: Growth rate) of 109%. For the same molecule, the activity at 0.1 µM ([1]; Bacillus subtilis, 168, minimal medium, 0.1 µM, read-out: Final Backscatter) was 102%, the activity at 0.1 µM ([1]; Bacillus subtilis, 168, minimal medium, 0.1 µM, read-out: Growth rate) was 123% and the activity at 1 µM ([1]; Bacillus subtilis, 168, minimal medium, 1 µM, read-out: Final Backscatter) was 98.6%. It also gave an activity at 1 µM ([1]; Bacillus subtilis, 168, minimal medium, 1 µM, read-out: Growth rate) of 113%, an activity at 10 µM ([1]; Bacillus subtilis, 168, minimal medium, 10 µM, read-out: Final Backscatter) of 104% and an activity at 10 µM ([1]; Bacillus subtilis, 168, minimal medium, 10 µM, read-out: Growth rate) of 115%. For the same molecule, the “Lag Phase” value ([1]; complex medium, 0.1 µM) was 110,6%, the “Lag Phase” value ([1]; complex medium, 1 µM) was 102,7% and the “Lag Phase” value ([1]; complex medium, 10 µM) was 94,7%. The “Lag Phase” value ([1]; minimal medium, 0.1 µM) was 98,2%, the “Lag Phase” value ([1]; minimal medium, 1 µM) was 100,6% and the “Lag Phase” value ([1]; minimal medium, 10 µM) was 100,0%. The Influence on plants [2] was “Yes”, the dry weight ([2]; six days after treatment, both experiments) was “significantly reduced” and the activity at 0.1 µM ([3]; KT2440, complex medium, 0.1 µM, read-out: Final Backscatter) was 97.8%. The activity at 0.1 µM ([3]; KT2440, complex medium, 0.1 µM, read-out: Growth rate) was 104%, the activity at 1 µM ([3]; KT2440, complex medium, 1 µM, read-out: Final Backscatter) was 98.2% and the activity at 1 µM ([3]; KT2440, complex medium, 1 µM, read-out: Growth rate) was 103%. The activity at 10 µM ([3]; KT2440, complex medium, 10 µM, read-out: Final Backscatter) was 98.6%, the activity at 10 µM ([3]; KT2440, complex medium, 10 µM, read-out: Growth rate) was 99.7% and the activity at 0.1 µM ([3]; KT2440, minimal medium, 0.1 µM, read-out: Final Backscatter) was 92.5%. For the same molecule, the activity at 0.1 µM ([3]; KT2440, minimal medium, 0.1 µM, read-out: Growth rate) was 105%, the activity at 1 µM ([3]; KT2440, minimal medium, 1 µM, read-out: Final Backscatter) was 93.6% and the activity at 1 µM ([3]; KT2440, minimal medium, 1 µM, read-out: Growth rate) was 104%. For the same molecule, the activity at 10 µM ([3]; KT2440, minimal medium, 10 µM, read-out: Final Backscatter) was 99.3%, the activity at 10 µM ([3]; KT2440, minimal medium, 10 µM, read-out: Growth rate) was 100% and the “Lag Phase” value ([3]; complex medium, 0.1 µM) was 103,3%. For the same molecule, the “Lag Phase” value ([3]; complex medium, 1 µM) was 103,9%, the “Lag Phase” value ([3]; complex medium, 10 µM) was 105,9% and the “Lag Phase” value ([3]; minimal medium, 0.1 µM) was 108,8%. For the same molecule, the “Lag Phase” value ([3]; minimal medium, 1 µM) was 106,1% and the “Lag Phase” value ([3]; minimal medium, 10 µM) was 100,0%.
